Experimental findings from PMC11574108, “4-Furanylvinylquinoline derivative as a new scaffold for the design of oxidative stress initiator and glucose transporter inhibitor drugs” (Scientific Reports, 2024) are described below.

Structures are written as SMILES. Where two headings read alike, the source gives them in different places.

For one assay, the system named is HCT 116 p53+/+ spheroids. As to the kind of experiment: 3D spheroid cell viability assay. It is filed as cell-based, human. The settings on record: 3D spheroids, CellTiter-Glo 3D, 72-h treatment, read-out: IC50 HCT 116 p53+/+ (3D model). As to the method: The HCT 116 cell lines, AsPC-1, PANC-1 (5,000), and U-251 cells (8,000) in 100 µL of medium were seeded in 96-well ULA Corning spheroid microplates (Sigma-Aldrich) and incubated for 72 h at 37 °C to form spheroids. The medium from each well was then gently removed and freshly prepared solutions of 13 were added. The treated spheroids were incubated for the next 72-h. Afterward, cell viability assays were performed using CellTiter-Glo 3D Reagent (Promega) according to the manufacturer’s protocol. Briefly, CellTiter-Glo 3D Reagent was added in equal volume to the medium in each well. The plate was vigorously mixed for 5 min and then incubated for 25 min at room temperature. The luminescence was measured using a multiplate reader (Synergy 4, BioTek). The experiment for each sample was performed at least three times. The results from the assay are presented as IC50 values, which were calculated using GraphPad Prism v.8.0 (USA).
To confirm the cytotoxicity ranking, the viability of the cells was also estimated on a 3D spheroid model, which better represented a solid tumour. […] The cell lines that represented pancreatic cancer were less responsive to derivative 13, which was similar to the 2D model. […]
(In general: In ATP-based viability assays light output follows the ATP content of the culture.)

In a further assay the test system is NHDF. As to the kind of experiment: Monolayer MTS cytotoxicity against normal cells. The assay is classed as cell-based. The settings on record: NHDF, normal human dermal fibroblasts, 72-h incubation. From the text:
(§1) The human colon carcinoma cell line HCT 116 with wild-type p53 (p53^+/+) and the human glioblastoma cell line U-251 were obtained from ATCC, while the HCT 116 with a p53 deletion (p53^−/−) was kindly provided by Prof. M. Rusin from the Maria Sklodowska-Curie Memorial Cancer Center and Institute of Oncology in Gliwice, Poland. The human chronic myelogenous leukaemia cell line K562 and the normal human cell dermal fibroblast cell line NHDF were purchased from Sigma-Aldrich and PromoCell, respectively. Both the HCT 116 and U-251 cell lines were cultured in Dulbecco’s modified Eagle’s medium (DMEM) supplemented with 10% inactivated foetal bovine serum (FBS). The DMEM for the NHDF contained 15% non-inactivated FBS. K562 cells were cultured in RPMI medium completed by 10% inactivated FBS. Additionally, the media were supplemented with antibiotics (streptomycin and penicillin – 1% v/v; Sigma-Aldrich). The cell culture was conducted in 75 cm^2 flasks (Nunc) under standard conditions (37 °C, 5% CO2 humidified atmosphere). Furthermore, the cell lines were frequently tested for mycoplasma using the qRT-PCR technique with specific Mycoplasma primers to confirm the lack of contamination.
(§2) The cells were seeded in 96-well plates (Nunc) with 5,000 or 4,000 cells per well for the cancer cells and NHDF, respectively, and incubated under standard conditions at 37 °C overnight. The culture media were then changed for freshly prepared solutions of the tested compounds in various concentrations. After 72-h incubation the antiproliferative assay was carried out as follows: the solutions of the compounds were changed in each well to 100 µL DMEM without phenol red and 20 µL of CellTiter 96 AQueous One Solution-MTS (Promega). The plates were incubated for 1 h at 37 °C, and the absorbance was then measured at 490 nm using a multi-plate reader (Synergy 4, BioTek). The experiment for each sample was repeated at least three times.
Additionally, the compounds were also tested for their cytotoxicity against normal cells – human dermal fibroblasts (NHDF).

The subject of the next assay is U-251. As to the kind of experiment: Monolayer antiproliferative MTS assay. It is filed as cell-based, human. Conditions: 2D monolayer; for IC50: MTS, 72-h incubation.
Description: as §1
as §2, with “times. The results are presented as the half-maximal inhibitory concentration (IC50) values, which were estimated in comparison to untreated cells (control) and calculated using GraphPad Prism v.8.0 (USA).” for “times.”
(§3) However, the antiproliferative activity of derivative 13 with furan a ring was surprising. […] For this purpose, we selected two pancreatic cancer cell lines: AsPC-1, which is characterised by a deletion of the p53 protein[20] and PANC-1, which carries an R273H mutation. This mutation also occurred in the glioblastoma U-251 cell line[22],[23]. An additional non-adherent line that carries the TP53 mutation that results in the absence of p53 is the K562 leukemic cell line[24]. […] Moreover, 13 was selective toward […], as indicated by its SI values (3.35–9.41). Among all of the tested cell lines, the highest activity of the compound was found against the HCT 116 cells with the wild-type p53 protein (0.069 µM). […] The p53 protein also interacts with the metabolic pathways that are associated with glucose transport[25] as well as small molecules. In light of the above-mentioned facts, we also determined the cytotoxicity of the GLUT inhibitor BAY-876, which is based on a quinoline scaffold. […] Furthermore, BAY-876 was also toxic to normal cells.
Background: Formazan colour is commonly taken as a measure of viable cells.

The subject of another assay is K562. Nature of the assay: Monolayer antiproliferative MTS assay. The assay is classed as cell-based, human. The settings on record: 2D model; for IC50: MTS, 72-h incubation.
Description: as §1
as §2, with “times. The results are presented as the half-maximal inhibitory concentration (IC50) values, which were estimated in comparison to untreated cells (control) and calculated using GraphPad Prism v.8.0 (USA).” for “times.”
as §3

For the compound `O=[N+]([O-])c1ccc(/C=C/c2ccnc3ccccc23)o1` [Compound 13], the IC50 was 1160 ± 190 nM with HCT 116 p53+/+ spheroids; approximately 1000 nM in the assay on HCT 116 p53+/+ spheroids (Homo sapiens, HCT-116, 72 h); 649 ± 60 nM in the assay on NHDF; 87 ± 7 nM with U-251; less than 100 nM with U-251 (Homo sapiens, U-251, 72 h); 93 ± 9 nM in the assay with K562. For the same compound, the IC50 with K562 (Homo sapiens, K562, 72 h) was less than 100 nM. The “SI (selectivity index) U-251” value in the assay with U-251 (relative to NHDF) came to 7.46. Moreover, in the assay with K562 (relative to NHDF), the “SI (selectivity index) K562” value came out at 6.98.
